From patent publication US20240336613A1, “HETEROARYL COMPOUNDS FOR TREATING HUNTINGTON'S DISEASE” (PTC THERAPEUTICS, INC., priority 2021, published 2024)

What follows are molecules tested on Huntingtin protein (HTT) (assay: Endogenous Huntingtin Protein Assay (MSD electrochemiluminescence)). Conditions: Table 1, Endogenous Huntingtin Protein Assay; read-out: IC50.
Assay type: cell-based
Description: Compounds of Formula (I) were tested using the Meso Scale Discovery (MSD) Assay provided in International Application No. PCT/US2016/066042, filed on Dec. 11, 2016 and claiming priority to United States Provisional Application U.S. 62/265,652 filed on Dec. 10, 2015, the entire contents of which are incorporated herein by reference.
The Endogenous Huntingtin Protein assay used in Example 1 was developed using the ELISA-based MSD electrochemiluminescence assay platform.
Meso Scale Discovery (MSD) 96-well or 384-well plates were coated overnight at 4° C. with MW1 (expanded polyglutamine) or MAB2166 monoclonal antibody (for capture) at a concentration of 1 μg/mL in PBS (30 μL per well). Plates were then washed three times with 300 μL wash buffer (0.05% Tween-20 in PBS) and blocked (100 μL blocking buffer; 5% BSA in PBS) for 4-5 hours at room temperature with rotational shaking and then washed three times with wash buffer.
Samples (25 μL) were transferred to the antibody-coated MSD plate and incubated overnight at 4° C. After removal of the lysates, the plate was washed three times with wash buffer, and 25 μL of #5656S (Cell signaling; rabbit monoclonal) secondary antibody (diluted to 0.25 μg/mL in 0.05% Tween-20 in blocking buffer) was added to each well and incubated with shaking for 1 Hour at room temperature. Following incubation with the secondary antibody, the wells were rinsed with wash buffer after which 25 μL of goat anti-rabbit SULFO TAG secondary detection antibody (required aspect of the MSD system) (diluted to 0.25 μg/mL in 0.05% Tween-20 in blocking buffer) was added to each well and incubated with shaking for 1 hour at room temperature. After rinsing three times with wash buffer, 150 μL of read buffer T with surfactant (MSD) were added to each empty well, and the plate was imaged on a SI 6000 imager (MSD) according to manufacturers' instructions provided for 96- or 384-well plates.

IC50, < 0.1 µM:
CC1(C)CC(n2ccc3cc(-c4ccc(-n5ccnn5)cc4O)nnc32)CCN1 (racemic) [Cpd 5, 2-{7-[(4RS)-2,2-dimethylpiperidin-4-yl]-7H-pyrrolo[2,3-c]pyridazin-3-yl}-5-(1H-1,2,3-triazol-1-yl)phenol]
Cc1cc2cc(-c3ccc(-n4ccnn4)cc3O)nnc2n1[C@H]1CC(C)(C)NC(C)(C)[C@H]1F [Cpd 10, 2-{7-[(3S,4S)-3-fluoro-2,2,6,6-tetramethylpiperidin-4-yl]-6-methyl-7H-pyrrolo[2,3-c]pyridazin-3-yl}-5-(1H-1,2,3-triazol-1-yl)phenol]
Oc1cc(-n2ccnn2)cnc1-c1cc2ccn([C@H]3CCNC4(CC4)C3)c2nn1 [Cpd 14, 2-{7-[(7S)-4-azaspiro[2.5]octan-7-yl]-7H-pyrrolo[2,3-c]pyridazin-3-yl}-5-(1H-1,2,3-triazol-1-yl)pyridine-3-ol]
CC1(C)C[C@H](n2ccc3cc(-c4c(O)cc(-n5ccnn5)cc4F)nnc32)[C@H](F)C(C)(C)N1 [Cpd 27, 3-fluoro-2-{7-[(3S,4S)-3-fluoro-2,2,6,6-tetramethylpiperidin-4-yl]-7H-pyrrolo[2,3-c]pyridazin-3-yl}-5-(1H-1,2,3-triazol-1-yl)phenol]
